Measured values taken from patent US20240228493A1, “LRRK2 INHIBITORS AND USES THEREOF” (NEURON23, ICN., priority 2022, published 2024).

These compounds were tested on human hepatocyte (assay: Human hepatocyte stability, predicted hepatic clearance (h-Hept CL predict)). Conditions: human hepatocytes, 0.5×10^6 cells/mL, 1 μM, values without asterisk.
Type: in vitro ADME
Outline: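 Cryopreserved human hepatocytes, 0.5×10^6 viable cells/mL in William's E/GlutaMAX, incubated with compound at 1 μM final, duplicates. Sampling at 0-120 min, LC/MS/MS parent loss gives t1/2, converted to CLint and scaled to predicted hepatic clearance (well-stirred model, fub assumed 1).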

| SMILES | hHep Cl (mL/min/kg) |
| --- | --- |
| Cc1n[nH]c2c1N=C(c1c(F)cccc1F)Nc1ccc(N3CCO[C@H](C(C)(C)O)C3)cc1-2 (single isomer, unassigned) [Example 36] | L (L (Low Cl)”: Hep Cl (mL/min/kg)<6.3) |
| Cc1n[nH]c2c1N=C(c1c(F)cccc1F)Nc1c-2cc(N2CCC(C)(O)CC2)nc1C [Example 41, 1-(5-(2,6-difluorophenyl)-3,7-dimethyl-1,6-dihydropyrazolo[4,3-d]pyrido[4,3-f][1,3]diazepin-9-yl)-4-methylpiperidin-4-ol] | I (I (Intermediate Cl)”: 6.3≤Hep Cl (mL/min/kg)≤14.7) |
| [2H]C([2H])([2H])c1n[nH]c2c1N=C(c1c(F)cccc1F)Nc1cnc(N3CCO[C@H](C)C3)cc1-2 [Example 27, (2R)-4-[8-(2,6-difluorophenyl)-5-(trideuteriomethyl)-3,4,7,9,12-pentazatricyclo[8.4.0.02,6]tetradeca-1(10),2(6),4,7,11,13-hexaen-13-y1]-2-methyl-morpholine] | L (L (Low Cl)”: Hep Cl (mL/min/kg)<6.3) |
| Cc1n[nH]c2c1N=C(c1c(F)cccc1F)Nc1c-2cc(N2CCO[C@@H](C(C)(C)O)C2)nc1C (single isomer, unassigned) [Example 39] | L (L (Low Cl)”: Hep Cl (mL/min/kg)<6.3) |
| Cc1n[nH]c2c1N=C(c1c(F)cccc1F)Nc1cnc(-c3cnn(CC(F)F)c3)cc1-2 [Example 28, 13-[1-(2,2-difluoroethyl)pyrazol-4-y1]-8-(2,6-difluorophenyl)-5-methyl-3,4,7,9,12-pentazatricyclo[8.4.0.02,6]tetradeca-1(10),2(6),4,7,11,13-hexaene] | L (L (Low Cl)”: Hep Cl (mL/min/kg)<6.3) |
| [2H]C1([2H])OC([2H])([2H])C([2H])([2H])N(c2cc3c(cn2)NC(c2c(F)cccc2F)=Nc2c(C)n[nH]c2-3)C1([2H])[2H] [Example 14, 2,2,3,3,5,5,6,6-octadeuterio-4-[8-(2,6-difluorophenyl)-5-methyl-3,4,7,9,12-pentazatricyclo[8.4.0.02,6]tetradeca-1(10),2(6),4,7,11,13-hexaen-13-yl]morpholine] | L (L (Low Cl)”: Hep Cl (mL/min/kg)<6.3) |
| C[C@H]1CN(c2cc3c(cn2)NC(c2c(F)cccc2F)=Nc2c(Cl)n[nH]c2-3)C[C@H](C)O1 [Example 26, (2S,6S)-4-(3-chloro-5-(2,6-difluorophenyl)-1,6-dihydropyrazolo[4,3-d]pyrido[4,3-f][1,3]diazepin-9-yl)-2,6-dimethylmorpholine] | I (I (Intermediate Cl)”: 6.3≤Hep Cl (mL/min/kg)≤14.7) |
| Cn1cc(-c2cc3c(cn2)NC(c2c(F)cccc2F)=Nc2c(Cl)n[nH]c2-3)cn1 [Example 54, 3-chloro-5-(2,6-difluorophenyl)-9-(1-methyl-1H-pyrazol-4-yl)-1,6-dihydropyrazolo[4,3-d]pyrido[4,3-f][1,3]diazepine] | I (I (Intermediate Cl)”: 6.3≤Hep Cl (mL/min/kg)≤14.7) |

The remaining lines, values ahead:

| hHep Cl (mL/min/kg) | SMILES |
| --- | --- |
| L (L (Low Cl)”: Hep Cl (mL/min/kg)<6.3) | Cc1n[nH]c2c1N=C(c1c(F)cccc1F)Nc1cnc(N3C[C@@H]4C[C@H]3CO4)cc1-2 [Example 6, (1S,4S)-5-[8-(2,6-difluorophenyl)-5-methyl-3,4,7,9,12-pentazatricyclo[8.4.0.02,6]tetradeca-1(10),2(6),4,7,11,13-hexaen-13-y1]-2-oxa-5-azabicyclo[2.2.1]heptane] |
| L (L (Low Cl)”: Hep Cl (mL/min/kg)<6.3) | Cc1n[nH]c2c1N=C(c1c(F)cccc1F)Nc1c-2cc(N2CCO[C@@H](CO)C2)nc1C [Example 37, (R)-(4-(5-(2,6-difluorophenyl)-3,7-dimethyl-1,6-dihydropyrazolo[4,3-d]pyrido[4,3-f][1,3]diazepin-9-yl)morpholin-2-y1)methanol] |
| L (L (Low Cl)”: Hep Cl (mL/min/kg)<6.3) | Cc1n[nH]c2c1N=C(c1c(F)cccc1F)Nc1cnc(N3CCS(=O)(=O)CC3)cc1-2 [Example 2, 4-[8-(2,6-difluorophenyl)-5-methyl-3,4,7,9,12-pentazatricyclo[8.4.0.02,6]tetradeca-1(10),2(6),4,7,11,13-hexaen-13-y1]-1,4-thiazinane 1,1-dioxide] |
| L (L (Low Cl)”: Hep Cl (mL/min/kg)<6.3) | [2H]C1([2H])OC([2H])([2H])C([2H])([2H])N(c2cc3c(cn2)NC(c2c(F)cccc2F)=Nc2cn[nH]c2-3)C1([2H])[2H] [Example 20, 2,2,3,3,5,5,6,6-octadeuterio-4-[8-(2,6-difluorophenyl)-3,4,7,9,12-pentazatricyclo[8.4.0.02,6]tetradeca-1(10),2(6),4,7,11,13-hexaen-13-yl]morpholine] |
| L (L (Low Cl)”: Hep Cl (mL/min/kg)<6.3) | Fc1cccc(F)c1C1=Nc2cn[nH]c2-c2cc(N3CCOCC3)ncc2N1 [Example 33, 4-[8-(2,6-difluorophenyl)-3,4,7,9,12-pentazatricyclo[8.4.0.02,6]tetradeca-1(10),2(6),4,7,11,13-hexaen-13-yl]morpholine] |
| L (L (Low Cl)”: Hep Cl (mL/min/kg)<6.3) | Cc1n[nH]c2c1N=C(c1c(F)cccc1F)Nc1cnc(N3CCC[C@@H](C#N)C3)cc1-2 [Example 18, (3R)-1-[8-(2,6-difluorophenyl)-5-methyl-3,4,7,9,12-pentazatricyclo[8.4.0.02,6]tetradeca-1(10),2(6),4,7,11,13-hexaen-13-yl]piperidine-3-carbonitrile] |
| L (L (Low Cl)”: Hep Cl (mL/min/kg)<6.3) | Fc1cccc(F)c1C1=Nc2c(Cl)n[nH]c2-c2cc(N3CCOCC3)ccc2N1 (single isomer, unassigned) [Example 35, 4-(3-chloro-5-(2,6-difluorophenyl)-1,6-dihydrobenzo[d]pyrazolo[3,4-f][1,3]diazepin-9-y1)morpholine] |
| L (L (Low Cl)”: Hep Cl (mL/min/kg)<6.3) | Fc1cccc(F)c1C1=Nc2c(Cl)n[nH]c2-c2cc(N3CCOCC3)ncc2N1 [Example 23, 4-(3-chloro-5-(2,6-difluorophenyl)-1,6-dihydropyrazolo[4,3-d]pyrido[4,3-f][1,3]diazepin-9-yl)morpholine] |
